# Literature values as cited in US20240009133A1, “METHODS OF TREATING AUTOIMMUNE OR INFLAMMATORY CONDITIONS WITH CANNABIDIOL OR ITS DERIVATIVES/ANALOGS” (ORCOSA INC., priority 2020, published 2024).
# Settings: oral, randomized control trial in Crohn's disease
smiles,measurement,value
"C=C(C)[C@@H]1CCC(C)=C[C@H]1c1c(O)cc(CCCCC)cc1O [CBD, cannabidiol]",efficacy,no statistical efficacy demonstrated
same,safety,safe
